Data set [1] has as its target T1, motilin receptor (Oryctolagus cuniculus, UniProt G1T803).
T1 construct: from tissue; host or cells: rabbit antral smooth muscle membranes
Put plainly: Motilin receptor binding affinity (displacement of [125I-Tyr7,Nle13]motilin(porcine)). Also noted: species or system rabbit. The procedure:
The motilin receptor binding affinity of the peptides of this invention was determined by using the general procedure of Bormans, Peeters and Vantrappen, Regul. […] Fitting was performed using the iterative least-squares procedure of the SAS-software package (SAS Institute, Inc., Cary, N.C., USA).
A general note: In a radioligand displacement assay an active substance lowers the binding of a labelled ligand.

Data set [2] addresses rabbit duodenal smooth muscle strip (Oryctolagus cuniculus, UniProt G1T803). Nature of the data set: Rabbit duodenal smooth muscle strip tissue bath assay (contractility). The class given is cell-based. The following applies: negative logarithm of dose giving 50% of maximal response to motilin; isotonic contraction of rabbit duodenum segments. The procedure: The experimental protocol consisted of an equilibration period of 1 hour; a challenge with 10^-4 M acetylcholine followed by a wash-out period; a cumulative dose-response curve of a compound with, at the end, the addition of 10^-7 M motilin; and finally 10^-4 M acetylcholine. If the final response to 10^-4 M acetylcholine differed by more than 5% from the initial response, the results were discarded.

The nature of data set [3]: In vitro stability testing in 2% hog kidney homogenate. In kind it is in vitro ADME. The following applies: for half-life at 0.5 mg/ml: pig, kidney or brush border membranes. The protocol:
Like most small linear polypeptides, motilin is believed to be metabolized by the brush border cells of the kidney. Therefore, kidney homogenate was chosen as the model system for assessing the relative in vivo biostability of the peptides of this invention. All peptides to be studied were incubated in hog kidney (Pel Freeze, Inc., Rogers, Ark.) (2% w/v; final volume=4 mls; buffer=HEPES pH 7.0) at 25° C. […] In order to determine suitable incubation times and sampling intervals, two experiments were conducted with each polypeptide. The first run served as a rough estimate of peptide stability. All sampling was performed in duplicate. Sample volume was 180 μl. Sample clean-up was performed by addition of 20 μl of 100% TCA (final volume=200 μl; final TCA concentration=10%). The sample was vortexed from 5 to 10 seconds to ensure equilibration, then centrifuged to spin out the precipitated proteins. Analysis was carried out on a Waters HPLC system with autoinjector, a 5 μVydac C-18 analytical column, and a Waters 481 UV detector set at 214 nm. Injection volume was 80 μl. Initial solvent conditions were 20% acetonitrile / 80% (0.1%) TFA in Milli-Q water with a 35 minute gradient running to 63% acetonitrile / 37% (0.1%) TFA at 1 ml/min. Polypeptide substrate and metabolite peaks were ratioed to the internal standard and the duplicate sample ratios were averaged. The average ratio for the peptide substrate was expressed as a percentage and plotted versus time. First-order kinetics was assumed for data treatment. The rate of disappearance of the substrate was calculated using the Enzfitter program (Biosoft). Relative half-lives were determined from the relationship: […]

Setting [4] is: negative logarithm of concentration displacing 50% of [125I-Tyr7,Nle13]motilin(porcine) bound to rabbit antral smooth muscle membranes, read-out: pIC50 (converted).

In general, pEC50 refers to −log10 of the EC50, conventionally taken in molar units.

Molecules are shown by their SMILES. Where two headings read alike, the source gives them in different places. Positions of bridges follow the written chain, without caps; N, C: chain ends. Non-standard residues stand in square brackets, D forms with d. Residues, ends and D or L forms follow the SMILES beside them. *: point of attachment. X1 = C[N+](C)(C)[C@@H](Cc1ccccc1)C(=O)*; NMeF = CN[C@@H](Cc1ccccc1)C(=O)O; dNMeF = CN[C@H](Cc1ccccc1)C(=O)O

T1 sequence (G1T803 1-400): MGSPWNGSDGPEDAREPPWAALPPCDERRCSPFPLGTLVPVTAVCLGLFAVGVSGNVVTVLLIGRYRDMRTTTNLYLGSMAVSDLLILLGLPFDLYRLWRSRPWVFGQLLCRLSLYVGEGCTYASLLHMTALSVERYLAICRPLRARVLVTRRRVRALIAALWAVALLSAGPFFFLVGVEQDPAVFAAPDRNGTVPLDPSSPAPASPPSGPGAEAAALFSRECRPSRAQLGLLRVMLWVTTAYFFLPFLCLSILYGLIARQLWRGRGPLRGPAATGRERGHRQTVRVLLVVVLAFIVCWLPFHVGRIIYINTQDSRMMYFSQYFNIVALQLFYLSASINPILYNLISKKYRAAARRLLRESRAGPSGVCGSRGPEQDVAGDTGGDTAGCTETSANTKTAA
Sequence of rabbit duodenal smooth muscle strip (G1T803 1-400): as above

Turning to `CC[C@H](C)[C@H](NC(=O)[C@@H]1CCCN1C(=O)[C@@H](NC(=O)[C@H](Cc1ccccc1)NC)C(C)C)C(=O)N[C@@H](Cc1ccccc1)C(=O)N[C@H](C(=O)N[C@@H](Cc1ccc(O)cc1)C(=O)NCC(=O)N[C@@H](CCC(=O)O)C(=O)N[C@H]1CC(=O)NCCCC[C@@H](C(N)=O)NC(=O)[C@H](CC(C)C)NC(=O)[C@@H](CCCNC(=N)N)NC(=O)[C@H](C)NC1=O)[C@@H](C)O` [SEQ ID NO:23, cyclo^10,14 [N-MePhe^1,Asp^10,Ala^11,D-Arg^12,Leu^13,Lys^14]pMOT(1-14) amide] (H-[NMeF]VPIFTYGEDA[dR]LK-NH2; lactam 10-14), the IC50 in data set [1] (setting [4]) is 11.5 nM. In data set [2], this compound showed a pEC50 of 7.89.

With `CC[C@H](C)[C@H](NC(=O)[C@@H]1CCCN1C(=O)[C@@H](NC(=O)[C@H](Cc1ccccc1)NC)C(C)C)C(=O)N[C@@H](Cc1ccccc1)C(=O)N[C@H](C(=O)N[C@@H](Cc1ccc(O)cc1)C(=O)NCC(=O)N[C@@H](CCC(=O)O)C(=O)N[C@H]1CC(=O)NCCCC[C@@H](C(=O)N[C@@H](CCCCN)C(N)=O)NC(=O)[C@H](CC(C)C)NC(=O)[C@H](CCCNC(=N)N)NC(=O)[C@H](C)NC1=O)[C@@H](C)O` [SEQ ID NO:8, cyclo^10,14 [N-MePhe^1,Asp^10,Ala^11,Leu^13,Lys^14,Lys^15]pMOT(1-15) amide] (H-[NMeF]VPIFTYGEDARLKK-NH2; lactam 10-14), in data set [1] (setting [4]), the IC50 was 1.1 nM. The compound also returned a pEC50 in data set [2] of 7.69.

`CC[C@H](C)[C@H](NC(=O)[C@@H]1CCCN1C(=O)[C@@H](NC(=O)[C@H](Cc1ccccc1)NC)C(C)C)C(=O)N[C@@H](Cc1ccccc1)C(=O)N[C@H](C(=O)N[C@@H](Cc1ccc(O)cc1)C(=O)NCC(=O)N[C@@H](CCC(=O)O)C(=O)N[C@H]1CC(=O)NCCCC[C@@H](C(=O)N[C@H](CCCCN)C(N)=O)NC(=O)[C@H](CC(C)C)NC(=O)[C@H](CCCNC(=N)N)NC(=O)[C@H](C)NC1=O)[C@@H](C)O` [SEQ ID NO:9, cyclo^10,14 [N-MePhe^1,Asp^10,Ala^11,Leu^13,Lys^14,D-Lys^15]pMOT(1-15) amide] (H-[NMeF]VPIFTYGEDARLK[dK]-NH2; lactam 10-14) had an IC50 in data set [1] of 0.661 nM. In addition, in data set [2], the pEC50 is recorded as 7.89.

As to `CC[C@H](C)[C@H](NC(=O)[C@@H]1CCCN1C(=O)[C@@H](NC(=O)[C@@H](Cc1ccccc1)NC)C(C)C)C(=O)N[C@@H](Cc1ccccc1)C(=O)N[C@H](C(=O)N[C@@H](Cc1ccc(O)cc1)C(=O)NCC(=O)N[C@@H](CCC(=O)O)C(=O)N[C@H]1CCC(=O)NCCCC[C@@H](C(N)=O)NC(=O)[C@H](CC(C)C)NC(=O)[C@H](CCCNC(=N)N)NC(=O)[C@H](CCC(N)=O)NC1=O)[C@@H](C)O` [SEQ ID NO:13, cyclo^10,14 [N-Me-D-Phe^1,Glu^10,Leu^13,Lys^14 pMOT(1-14) amide] (H-[dNMeF]VPIFTYGEEQRLK-NH2; lactam 10-14), the IC50 in data set [1] (setting [4]) was 5.5 nM. Moreover, the pEC50 in data set [2] is recorded as 6.87.

As to `CC[C@H](C)[C@H](NC(=O)[C@@H]1CCCN1C(=O)[C@@H](NC(=O)[C@H](Cc1ccccc1)NC)C(C)C)C(=O)N[C@@H](Cc1ccccc1)C(=O)N[C@H](C(=O)N[C@@H](Cc1ccc(O)cc1)C(=O)NCC(=O)N[C@@H](CCC(=O)O)C(=O)N[C@H]1CC(=O)NCCCC[C@@H](C(=O)N[C@@H](CCCCN)C(N)=O)NC(=O)[C@H](CC(C)C)NC(=O)[C@@H](CCCNC(=N)N)NC(=O)[C@H](C)NC1=O)[C@@H](C)O` [SEQ ID NO:12, cyclo^10,14 [N-MePhe^1,Asp^10,Ala^11,D-Arg^12,Leu^13,Lys^14,Lys^15]pMOT(1-15) amide] (H-[NMeF]VPIFTYGEDA[dR]LKK-NH2; lactam 10-14), the half-life at 0.5 mg/ml in data set [3] (pH 7) amounted to 16 min. The IC50 in data set [1] (setting [4]) was 1.74 nM. Further, the pEC50 in data set [2] is given as 7.81.

Regarding `CC[C@H](C)[C@H](NC(=O)[C@@H]1CCCN1C(=O)[C@@H](NC(=O)[C@H](Cc1ccccc1)[N+](C)(C)C)C(C)C)C(=O)N[C@@H](Cc1ccccc1)C(=O)N[C@H](C(=O)N[C@@H](Cc1ccc(O)cc1)C(=O)NCC(=O)N[C@@H](CCC(=O)O)C(=O)N[C@H]1CC(=O)NCCCC[C@@H](C(N)=O)NC(=O)[C@H](CC(C)C)NC(=O)[C@@H](CCCNC(=N)N)NC(=O)[C@H](C)NC1=O)[C@@H](C)O` [SEQ ID NO:24, cyclo^10,14 [Me3 N^+ Phe^1,Asp^10,Ala^11,D-Arg^12,Leu^13,Lys^14]pMOT(1-14) amide] (X1-VPIFTYGEDA[dR]LK-NH2; lactam 9-13), the IC50 in data set [1] (setting [4]) is 12.6 nM. The pEC50 in data set [2] was 7.02.

`CC[C@H](C)[C@H](NC(=O)[C@@H]1CCCN1C(=O)[C@@H](NC(=O)[C@H](Cc1ccccc1)NC)C(C)C)C(=O)N[C@@H](Cc1ccccc1)C(=O)N[C@H](C(=O)N[C@@H](Cc1ccc(O)cc1)C(=O)NCC(=O)N[C@@H](CCC(=O)O)C(=O)N[C@H]1CC(=O)NCCCC[C@@H](C(N)=O)NC(=O)[C@H](CC(C)C)NC(=O)[C@H](CCCNC(=N)N)NC(=O)[C@H](C)NC1=O)[C@@H](C)O` [SEQ ID NO:17, cyclo^10,14 [N-MePhe^1,Asp^10,Ala^11,Leu^13,Lys^14]pMOT(1-14) amide] (H-[NMeF]VPIFTYGEDARLK-NH2; lactam 10-14): the half-life at 0.5 mg/ml in data set [3] (pH 7) was found to be 31 min. For the same compound, in data set [1] (setting [4]), the IC50 is 0.575 nM. The same compound yielded a pEC50 in data set [2] of 7.95.

Take `CC[C@H](C)[C@H](NC(=O)[C@@H]1CCCN1C(=O)[C@@H](NC(=O)[C@@H](N)Cc1ccccc1)C(C)C)C(=O)N[C@@H](Cc1ccccc1)C(=O)N[C@H](C(=O)N[C@@H](Cc1ccc(O)cc1)C(=O)NCC(=O)N[C@@H](CCC(=O)O)C(=O)N[C@@H](CC(C)C)C(=O)N[C@@H](CCC(N)=O)C(=O)N[C@@H](CCCNC(=N)N)C(=O)N[C@@H](CC(C)C)C(=O)N[C@@H](CCC(N)=O)C(=O)O)[C@@H](C)O` [SEQ ID NO:27, [Leu^13]pMOT(1-14), reference compound] (H-FVPIFTYGELQRLQ-OH; N-terminus and C-terminus assumed): the half-life at 0.5 mg/ml in data set [3] (pH 7) came to 7.5 min.

Turning to `CC[C@H](C)[C@H](NC(=O)[C@@H]1CCCN1C(=O)[C@@H](NC(=O)[C@@H](N)Cc1ccccc1)C(C)C)C(=O)N[C@@H](Cc1ccccc1)C(=O)N[C@H](C(=O)N[C@@H](Cc1ccc(O)cc1)C(=O)NCC(=O)N[C@@H](CCC(=O)O)C(=O)N[C@H]1CC(=O)NCCCC[C@@H](C(N)=O)NC(=O)[C@H](CC(C)C)NC(=O)[C@H](CCCNC(=N)N)NC(=O)[C@H](CCC(N)=O)NC1=O)[C@@H](C)O` [SEQ ID NO:6, cyclo^10,14 [Asp^10, Leu^13, Lys^14]pMOT(1-14)] (H-FVPIFTYGEDQRLK-NH2; lactam 10-14), the IC50 in data set [1] (setting [4]) is 1.51 nM. This compound showed a pEC50 in data set [2] of 7.77.

As to `CC[C@H](C)[C@H](NC(=O)[C@@H]1CCCN1C(=O)[C@@H](NC(=O)[C@@H](N)Cc1ccccc1)C(C)C)C(=O)N[C@@H](Cc1ccccc1)C(=O)N[C@H](C(=O)N[C@@H](Cc1ccc(O)cc1)C(=O)NCC(=O)N[C@@H](CCC(=O)O)C(=O)N[C@@H](CC(C)C)C(=O)N[C@@H](CCC(N)=O)C(=O)N[C@@H](CCCN=C(N)N)C(=O)N[C@@H](CC(C)C)C(=O)N[C@@H](CCC(N)=O)C(=O)N[C@@H](CCC(=O)O)C(=O)N[C@@H](CCCCN)C(=O)N[C@@H](CCC(=O)O)C(=O)N[C@@H](CCCN=C(N)N)C(=O)N[C@@H](CC(N)=O)C(=O)N[C@@H](CCCCN)C(=O)NCC(=O)N[C@@H](CCC(N)=O)C(=O)O)[C@@H](C)O` [SEQ ID NO:3, [Leu^13]pMOT(1-22), reference compound] (H-FVPIFTYGELQRLQEKERNKGQ-OH), the half-life at 0.5 mg/ml in data set [3] (2% w/v hog kidney homogenate, HEPES pH 7.0, 25° C., 0.5 mg/ml substrate, first-order kinetics, read-out: T1/2) was determined as 30.2 min.

`CC[C@H](C)[C@H](NC(=O)[C@@H]1CCCN1C(=O)[C@@H](NC(=O)[C@H](Cc1ccccc1)[N+](C)(C)C)C(C)C)C(=O)N[C@@H](Cc1ccccc1)C(=O)N[C@H](C(=O)N[C@@H](Cc1ccc(O)cc1)C(=O)NCC(=O)N[C@@H](CCC(=O)O)C(=O)N[C@H]1CCC(=O)NCCCC[C@@H](C(N)=O)NC(=O)[C@H](CC(C)C)NC(=O)[C@H](CCCNC(=N)N)NC(=O)[C@H](CCC(N)=O)NC1=O)[C@@H](C)O` [SEQ ID NO:14, cyclo^10,14 [Me3 N^+ Phe^1,Glu^10,Leu^13,Lys^14]pMOT(1-14) amide] (X1-VPIFTYGEEQRLK-NH2; lactam 9-13): the “T1/2” value in data set [3] (pH 7) was greater than 200 min. In data set [2], this compound showed a pEC50 of 7.38.
